In brackets after ≈: the same amount, converted by molar mass. Peptide text beside a SMILES is read from it.
Experiments:
[1] = system: IL-1β, IL-6, IL-8, Mcp-8, β-defensin; assay: qPCR of immune-related gene expression in tilapia liver and spleen; type: in vivo, tilapia (Oreochromis spp.); conditions: in words; for expression of immune-related genes IL-1β, IL-6, IL-8 and MCP-8: co-treatment or peptide treatment alone; for expression of TP2, TP3, TP4 or β-defensin antimicrobial peptide genes in liver: peptide alone or co-treatment, 3 hours after treatment
Description: Total RNA was isolated from the tilapia by peptide treatment before, concurrent with and after infection as described above. The groups included one that was only injected with V. vulnificus (2×10^5 CFU/fish) and one that was only injected with peptides (20 μg/fish). Samples were collected at 3, 6, 12, 24, and 48 hours after treatment to extract RNA, and the levels of tilapia total RNA obtained from the liver and spleen were determined with comparative real-time qRT-PCR analysis of all experimental groups. Real-time qRT-PCR was used to detect the levels of IL-1β (GenBank accession no. DQ061114.1), IL-6 (GenBank accession no. XM_005478656), IL-8 (GenBank accession no. NM001279706), Mcp-8 (GenBank accession no. XM_005478749) and β-defensin (GenBank accession no. KF294753). mRNA was isolated and transcribed into complementary first strands (c) according to previously published methods for real-time comparative qPCR to obtain DNA and detect the relative expression levels of each gene. All samples were examined in triplicate using a sample size of five tilapia. The reactions used to analyze gene expression consisted of 0.05 μg of total RNA. Comparative qRT-PCR Mastermix for the SYBR Green kit (Applied Biosystems, Perkin-Elmer) was used for quantification. The total reaction volume was 20 μl; the reactions were run in 96-well plates; and the program consisted of 40 cycles of 3 seconds at 95°C and 20 seconds at 60°C. We added a dissociation thermal start temperature of […] to each experiment to analyze the melting peaks of the generated PCR products. The data from each experiment were expressed as a ratio of the specific target gene expression/β-actin RNA expression. We used t-tests to compare groups, and multiple group comparisons were tested by ANOVA in SPSS software. Differences were defined as significant at P<0.05 (*), <0.01 (**), and <0.001 (***).

V. vulnificus [2] = assay: Tilapia survival, peptide injected after V. vulnificus infection (post-treatment); type: in vivo, tilapia (Oreochromis spp.); conditions: seven days
Text: (§1) We obtained tilapia (Oreochromis spp.) from a commercial aquaculture company. The fish body lengths were 4.0±0.6 cm, and body weights were 3.1±0.3 g. The tilapia were maintained in a 2000 liter indoor aquarium at the Marine Research Station, Ilan, Taiwan. To study the efficacy with which TP3 and TP4 protect tilapia against V. vulnificus, we injected the bacteria into the abdominal cavities (peritoneum) of the tilapia using a syringe (29 Gx1/2, Terumo Medical, Elkton, MD, USA); control tilapia were injected with PBS-buffered saline. For the first trial in each group, we used 15 tilapia: (a) group 1 was injected with V. vulnificus (2×10^5 CFU/fish) only; (b) group 2 was injected with PBS only; and (c) group 3 was injected with bacterial cells (2×10^5 CFU/fish) combined with a mixture containing both TP3 and TP4 peptides (at 0.1, 1, 10, or 20 μg/fish) that had been incubated for 60 minutes at 28°C. Next, at 168 hours after the first injection, the tilapia that survived the first co-treatment were again injected with V. vulnificus (2×10^5 CFU/fish). For this second challenge, we chose tilapia with similar body weights and ages that had not been previously treated with V. vulnificus, TP3 or TP4 for the V. vulnificus-only group (control group), and we recorded the survival rate over seven days. For the third trial, each group contained 15 tilapia, each of which was injected with 20, 30, or 40 μg of TP3 or TP4 followed by V. vulnificus (2×10^5 CFU/fish) after 0.5, 1, or 2 hours. The survival rate was recorded after seven days. For the fourth trial, each group contained 15 tilapia, each of which was first injected with V. vulnificus (2×10^5 CFU/fish) and then with 20, 30, or 40 μg of TP3 or TP4 after 0.5, 1, or 2 hours; the survival rate was recorded over seven days. Each experimental group consisted of 15 fish per treatment and three replicates (triplicate groups of 15 fish per treatment). We performed multiple group comparisons by analysis of variance (ANOVA) using SPSS software, and pairwise comparisons of groups were performed using a t-test. Significant differences were indicated as *P<0.05 and **P<0.01.

V. vulnificus [3] = assay: microbe, parasite or virus in culture; type: cell-based, Vibrio vulnificus
Description: We determined the MICs of TP3, TP4, kanamycin, and ampicillin against V. vulnificus using a broth microdilution method in accordance with NCCLS guidelines. To measure the killing efficiencies of TP3 and TP4 against V. vulnificus, we prepared TP3 or TP4 solutions at MIC concentrations of 0.5×, 1×, and 2× and these solutions with equal volumes of V. vulnificus (1×10^6 CFU/ml) to each well of a 96-well plate. The plates were incubated at 28°C for 0, 60, 120, 180, 360, 540, 720, or 1440 minutes, and after the incubation period, 50 μL of each bacterial solution were plated on a TCBS plate to obtain viable cell counts. Broth grown in the absence of peptides was used as a negative control. The results were determined using triplicate independent experiments.
First, we determined the minimum MICs and minimum bactericidal concentrations (MBCs) of TP3 or TP4 against V. vulnificus.

V. vulnificus [4] = assay: Tilapia survival, peptide injected before V. vulnificus infection (pre-treatment); type: in vivo, tilapia (Oreochromis spp.); conditions: 7 days
Text: as §1

V. vulnificus [5] = assay: microbe, parasite or virus in culture; type: cell-based, Vibrio vulnificus; conditions: peptide treated from room temperature to as high as 100°C; 16 hours of incubation
Description: To understand the effects of pH on TP3 or TP4, the reagents were dissolved in ddH2O, 1 M HCl or 1 M NaOH to obtain solutions with different pH values. For the temperature-dependent functional study, the TP3 or TP4 was added to a solution in a water bath (Basic life, model BL3002, Taiwan) and incubated for 60 minutes at different temperatures (40, 60, 80, or 100°C). To evaluate the effects of TP3 and TP4 on pepsin and trypsin function, each peptide was incubated for 10 or 30 minutes with different concentrations of pepsin or trypsin (0.1, 1, or 10 μg/ml), […], according to a previously described MIC experimental protocol.

[6] = peptide 20 μg/fish 0.5 hours after V. vulnificus
[7] = peptide 20 μg/fish 1 hour after V. vulnificus
[8] = peptide 20 μg/fish 2 hours after V. vulnificus
[9] = peptide 30 μg/fish 0.5 hours after V. vulnificus
[10] = peptide 30 μg/fish 1 hour after V. vulnificus
[11] = peptide 30 μg/fish 2 hours after V. vulnificus
[12] = peptide 40 μg/fish 0.5 hours after V. vulnificus
[13] = peptide 40 μg/fish 1 hour after V. vulnificus
[14] = peptide 40 μg/fish 2 hours after V. vulnificus
[15] = peptide 20 μg/fish 0.5 hours before V. vulnificus
[16] = peptide 20 μg/fish 1 hour before V. vulnificus
[17] = peptide 20 μg/fish 2 hours before V. vulnificus
[18] = peptide 30 μg/fish 0.5 hours before V. vulnificus
[19] = peptide 30 μg/fish 1 hour before V. vulnificus
[20] = peptide 30 μg/fish 2 hours before V. vulnificus
[21] = peptide 40 μg/fish 0.5 hours before V. vulnificus
[22] = peptide 40 μg/fish 1 hour before V. vulnificus
[23] = peptide 40 μg/fish 2 hours before V. vulnificus

Compound: CC[C@H](C)[C@H](NC(=O)[C@H](C)NC(=O)[C@H](CCCCN)NC(=O)CNC(=O)[C@H](C)NC(=O)[C@H](CO)NC(=O)[C@H](Cc1ccccc1)NC(=O)[C@H](CC(C)C)NC(=O)CNC(=O)CNC(=O)[C@@H](NC(=O)[C@@H](NC(=O)[C@H](Cc1c[nH]cn1)NC(=O)[C@H](Cc1c[nH]cn1)NC(=O)[C@@H](NC(=O)[C@@H](N)Cc1ccccc1)[C@@H](C)CC)[C@@H](C)CC)[C@@H](C)CC)C(=O)N[C@@H](Cc1c[nH]cn1)C(=O)N[C@@H](CCCNC(=N)N)C(=O)N[C@@H](CC(C)C)C(=O)N[C@H](C(=O)N[C@@H](CCCNC(=N)N)C(=O)N[C@@H](CCCNC(=N)N)C(=O)N[C@@H](CCCNC(=N)N)C(=O)N[C@@H](CCCNC(=N)N)C(=O)N[C@@H](CCCNC(=N)N)C(=O)O)[C@@H](C)CC [TP4, tilapia piscidin 4] (H-FIHHIIGGLFSAGKAIHRLIRRRRR-OH)
- expression of immune-related genes IL-1β, IL-6, IL-8 and MCP-8 [1]: down-regulation
- IL-1β, IL-6, IL-8 and Mcp-8 expression in spleen ([1]; peptide alone or co-injected with V. vulnificus, 12 hours after treatment): lower
- expression of TP2, TP3, TP4 or β-defensin antimicrobial peptide genes in liver [1]: down-regulated
- survival rate (V. vulnificus [2]; [6]): 48.9%
- survival rate (V. vulnificus [2]; [7]): 22.2%
- survival rate (V. vulnificus [2]; [8]): 4%
- survival rate (V. vulnificus [2]; [9]): 40%
- survival rate (V. vulnificus [2]; [10]): 20%
- survival rate (V. vulnificus [2]; [11]): 0%
- survival rate (V. vulnificus [2]; [12]): 2.2%
- survival rate (V. vulnificus [2]; [13]): 4.4%
- survival rate (V. vulnificus [2]; [14]): 6.7%
- MBC (V. vulnificus [3]): 7.8 µg/mL (≈ 2.62 µM)
- survival rate (V. vulnificus [4]; [15]): 37.8%
- survival rate (V. vulnificus [4]; [16]): 4.4%
- survival rate (V. vulnificus [4]; [17]): 0%
- survival rate (V. vulnificus [4]; [18]): 31.1%
- survival rate (V. vulnificus [4]; [19]): 20%
- survival rate (V. vulnificus [4]; [20]): 2.2%
- survival rate (V. vulnificus [4]; [21]): 11.1%
- survival rate (V. vulnificus [4]; [22]): 4.4%
- survival rate (V. vulnificus [4]; [23]): 4.4%
- concentration sufficient to eliminate V. vulnificus (V. vulnificus [5]): 31.2 µg/mL

Compound: CC[C@H](C)[C@H](NC(=O)[C@H](CC(C)C)NC(=O)[C@H](CO)NC(=O)[C@H](Cc1c[nH]cn1)NC(=O)[C@@H](NC(=O)[C@H](Cc1c[nH]cn1)NC(=O)[C@H](CCCCN)NC(=O)CNC(=O)[C@@H](NC(=O)[C@H](CO)NC(=O)[C@H](Cc1ccccc1)NC(=O)[C@H](CC(C)C)NC(=O)CNC(=O)CNC(=O)[C@@H](NC(=O)[C@@H](NC(=O)[C@H](Cc1c[nH]cn1)NC(=O)[C@H](Cc1c[nH]cn1)NC(=O)[C@@H](NC(=O)[C@@H](N)Cc1ccccc1)[C@@H](C)CC)[C@@H](C)CC)[C@@H](C)CC)C(C)C)[C@@H](C)CC)C(=O)N[C@@H](Cc1c[nH]cn1)C(=O)NCC(=O)N[C@@H](Cc1c[nH]cn1)C(=O)O [TP3, tilapia piscidin 3] (H-FIHHIIGGLFSVGKHIHSLIHGH-OH)
- expression of immune-related genes IL-1β, IL-6, IL-8 and MCP-8 [1]: down-regulation
- expression of TP2, TP3, TP4 or β-defensin antimicrobial peptide genes in liver [1]: down-regulated
- IL-1β, IL-6, IL-8, Mcp-8 and β-defensin gene expression in liver ([1]; pre-treatment and post-treatment groups, three hours after infection with V. vulnificus): significantly higher levels
- IL-1β, IL-6, IL-8 and β-defensin gene expression in spleen ([1]; pre-treatment and post-treatment, three hours after infection): significant increase
- survival rate (V. vulnificus [2]; [6]): 33.3%
- survival rate (V. vulnificus [2]; [7]): 20%
- survival rate (V. vulnificus [2]; [8]): 0%
- survival rate (V. vulnificus [2]; [9]): 33.3%
- survival rate (V. vulnificus [2]; [10]): 15.5%
- survival rate (V. vulnificus [2]; [11]): 4.5%
- survival rate (V. vulnificus [2]; [12]): 24.4%
- survival rate (V. vulnificus [2]; [13]): 8.9%
- survival rate (V. vulnificus [2]; [14]): 0%
- MBC (V. vulnificus [3]): 62.5 µg/mL (≈ 24.4 µM)
- survival rate (V. vulnificus [4]; [15]): 13.3%
- survival rate (V. vulnificus [4]; [16]): 2.2%
- survival rate (V. vulnificus [4]; [17]): 2.2%
- survival rate (V. vulnificus [4]; [18]): 28.9%
- survival rate (V. vulnificus [4]; [19]): 11.8%
- survival rate (V. vulnificus [4]; [20]): 8.9%
- survival rate (V. vulnificus [4]; [21]): 26.7%
- survival rate (V. vulnificus [4]; [22]): 8.9%
- survival rate (V. vulnificus [4]; [23]): 4.4%
- concentration sufficient to eliminate V. vulnificus (V. vulnificus [5]): 250 µg/mL

From paper PMC5234776, “Study of the Antimicrobial Activity of Tilapia Piscidin 3 (TP3) and TP4 and Their Effects on Immune Functions in Hybrid Tilapia (Oreochromis spp.)” (PLoS ONE, 2017)
